Results published in publication PMC11285368, “Chasing Red Herrings: Palladium Metal Salt Impurities Feigning KRAS Activity in Biochemical Assays” (Journal of Medicinal Chemistry, 2024).
Like-named read-outs stand apart in the source and are kept apart here.

How the values were obtained:
biotinylated GST = biotinylated GST (Schistosoma japonicum, UniProt P08515); test: Control assay (AlphaScreen Shortcut); assay type: biochemical
Method: This assay was developed to identify compounds that interfere with the assay format using AlphaLISA Glutathione Acceptor and AlphaScreen Streptavidin Donor beads. The assay was performed as described above using biotinylated GST as bridging reagent instead of KRAS^G12D and CRAF mix.

KRAS^G12D(GTP)::CRAF = target: T1, KRAS^G12D(GTP)::CRAF (Homo sapiens, UniProt P01116, G12D); test: KRAS^G12D(GTP)::CRAF AlphaScreen; assay type: biochemical
T1 construct: KRAS^G12D 1–169, N-terminal 6His-tag, C-terminal avi-tag (Xtal BioStructures, Inc.); 6His (N); purchased Xtal BioStructures, Inc. (KRAS); Viva Biotech Ltd. (CRAF)
Method: The proteins have been used at these given final assay concentrations:
Test compounds dissolved in DMSO were dispensed onto assay plates (Proxiplate 384 PLUS, white, PerkinElmer; 6008289) using an Access Labcyte Workstation with the Labcyte Echo 555. For the chosen highest assay concentration of 100 μM, 150 nl of compound solution were transferred from a 10 mM DMSO compound stock solution. A series of 11 5-fold dilutions per compound was transferred to the assay plate, and compound dilutions were tested in duplicates. DMSO was added as backfill to a total volume of 150 nl. The assay was run on a fully automated robotic system in a darkened room below 100 Lux. […] After 60 min incubation time 5 μL of AlphaScreen bead mix in assay buffer were added into columns 1–23. Bead mix consisted of AlphaLISA Glutathione Acceptor Beads (PerkinElmer, cat. no. AL109) and Alpha-Screen Streptavidin Donor Beads (perkinElmer cat. no. 6760002) in assay buffer at a final assay concentration of 10 μg/mL each. Plates were kept at room temperature in a darkened incubator. After an additional 60 min incubation time the signal was measured on a PerkinElmer Envision HTS Multilabel Reader using the AlphaScreen specs from PerkinElmer.
IC50 values were calculated and analyzed with Boehringer Ingelheim’s MEGALAB IC50 application using a 4 parametric logistic model.

KRAS^G12D(GCP) = KRAS^G12D(GCP) (Homo sapiens, UniProt P01116, G12D); test: KRAS STD-NMR; assay type: binding; details: Batch 1; 10 μM KRAS^G12D(GCP), 1000 μM ligand; approximated visually
Method: Experiments were recorded with a saturation time Tsat of 2 s and a total recycle delay of 3.6 s with the standard Bruker pulse program stddiffgp19.2. The shaped pulse train was made of G4 pulses with a length of 50 ms at a power of 31 μW. Here on resonance saturation was applied at 100 Hz and off resonance at 20000 Hz. No spin locking was applied to reduce the protein background. Here, 256 scans were applied with a time domain of 32 000 and the watergate delay was set to 90 μs to reduce remaining HDO signal intensity. 10 μM KRAS^G12D(GCP) and 1000 μM ligand was added for the STD NMR experiments and the percent enhancements approximated visually since no additional analysis was performed.

KRAS “on” = KRAS “on” (Homo sapiens, UniProt P01116); test: NMR-based fragment screen, KD (NMR); assay type: binding
[1] = Control assay IC50, Batch 2 (resynthesized)
[2] = Batch 1, read-out: KRAS^G12D(GTP)::CRAF AlphaScreen IC50
[3] = Batch 2 (resynthesized), read-out: KRAS^G12D(GTP)::CRAF AlphaScreen IC50
[4] = confirmation screen, read-out: IC50, KRAS^G12D(GTP)::CRAF high-throughput AlphaScreen

biotinylated GST, sequence (P08515 whole entry): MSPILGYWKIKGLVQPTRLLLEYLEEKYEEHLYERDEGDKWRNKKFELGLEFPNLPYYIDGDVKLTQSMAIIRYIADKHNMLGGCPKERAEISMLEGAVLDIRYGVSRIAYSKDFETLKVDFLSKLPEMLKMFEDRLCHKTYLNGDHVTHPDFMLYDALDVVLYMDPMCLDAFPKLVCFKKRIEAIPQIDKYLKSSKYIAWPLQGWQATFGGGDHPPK

Compound	IC50 (biotinylated GST; Control assay IC50, Batch 1)	IC50 (biotinylated GST; [1])	IC50 (biotinylated GST; Control assay IC50, Batch 3 (NP repurified))	IC50 (KRAS^G12D(GTP)::CRAF; [2])	IC50 (KRAS^G12D(GTP)::CRAF; [3])	IC50 (KRAS^G12D(GTP)::CRAF; Batch 3 (NP repurified), read-out: KRAS^G12D(GTP)::CRAF AlphaScreen IC50)	IC50 (KRAS^G12D(GTP)::CRAF; [4])	KRAS STD-NMR percent enhancement (KRAS^G12D(GCP))	Kd (KRAS “on”)
O=C1NCCc2c1[nH]c1c(-c3ccoc3)cccc21 [Cmpd 3, 8-(Furan-3-yl)-2H,3H,4H,9H-pyrido[3,4-b]indol-1-one]	34 ± 2.6 µM	69.7 ± 6.7 µM	> 100 µM	11 ± 1.5 µM	51.5 ± 3.5 µM	78.3 ± 2.9 µM	8.1 µM	11%	
O=C1NCCc2c1[nH]c1c(-c3ccncc3)cccc21 [Cmpd 4, 8-(Pyridin-4-yl)-2H,3H,4H,9H-pyrido[3,4-b]indol-1-one]	> 100 µM	> 100 µM		8.6 ± 0.8 µM	77.3 ± 55.7 µM		6.3 µM	7%	
c1ccc2c(Cc3nc4ccncc4[nH]3)c[nH]c2c1 [FBS Hit 1]	> 100 µM			> 100 µM					1200 µM
Clc1ccc2[nH]c3c(c2c1)CNCC3 [FBS Hit 2]	> 100 µM			> 100 µM					> 2000 µM
